Source: PMC9154192 (PLoS Biology, 2022)
Values joined by “and” are separate entries in the source; they are usually repeats but may differ in a detail not shown here. Identical values can stand only once. Like-named read-outs stand apart in the source and are kept apart here.

Experiments:
M. tuberculosis H37Rv [1] = assay type: cell-based, Mycobacterium tuberculosis; details: for RFU/200 μl (replicates1-3), single values / RFU/ml (×104) / RFU/200 μl (average): Fig 2A
XDR M. tuberculosis = experiment: Luminescence-based microbial cell viability assay; set-up: species or system Mycobacterium tuberculosis
M. tuberculosis H37Rv [2] = assay type: in vivo, BALB/c mice
intestinal microbiome = experiment: Gut microbiome, 16s rRNA gene-based metagenomics analysis of feces; assay type: in vivo, BALB/c mice
Protocol: Six-week-old BALB/c female mice were used for this study (6 mice for each group). Each drug was administered orally at 30 mg/kg once daily for 7 days. Stool was collected, and 16 rRNA gene-based metagenomics analysis was performed. Corn oil was used as the vehicle. The drug-free group received corn oil only. This animal experiment was conducted with the approval of the IACUC of the Soonchunhyang University (approval number: SCH21-0011). Microbiome analysis of collected feces was carried out as previously described with some modifications. Total DNA was extracted from the stool using the QIAamp DNA stool mini kit (Qiagen, Germany) after mechanical disruption using lysing matrix B tubes (MP Biomedicals, USA). V4 region of 16S RNA gene was amplified from extracted DNA with the following primers: forward primer ([…]) and reverse primer ([…]). PCR was performed using the Kappa HiFi hot start kit (KAPA Biosystems, USA) for 16s gene amplification and library preparation. A dsDNA HS assay kit and Qubit 4 fluorimeter (Invitrogen, USA) were used for DNA quantification. After each step, quality was checked using Agilent High Sensitivity DNA Kit and Agilent Bioanalyzer 2100 (Agilent Technologies, USA). Clean-up was performed using AMPure XP beads (Beckman Coulter, UK). The metagenomic library was prepared using a Nextera XT DNA Library Prep Kit (Illumina, USA) and loaded into an iSeq-100 reagent cartridge (Illumina, USA) together with a PhiX Control library (Illumina, USA). A 300-bp paired-end sequencing was performed on an iSeq-100 platform (Illumina, USA). Sequencing data were analyzed using the EzBioCloud server (Chunlab, Korea).

[3] = 30 mg/kg oral once a day for 7 days, BALB/c mice, feces

Compound: NNC(=O)c1ccncc1 [INH, isoniazid, reference compound]
- RFU/200 μl (replicates1-3), single values (M. tuberculosis H37Rv [1]; drug conc. 0.19): 54850 RFU/200 μl and 54780 RFU/200 μl and 48860 RFU/200 μl and 48850 RFU/200 μl and 51920 RFU/200 μl and 53630 RFU/200 μl and 53710 RFU/200 μl and 53510 RFU/200 μl and 54820 RFU/200 μl
- RFU/ml (×104) (M. tuberculosis H37Rv [1]; drug conc. 0.19): 26.4 RFU/ml (×104)
- RFU/200 μl (average) (M. tuberculosis H37Rv [1]; drug conc. 0.19, average of each replicate set): 49877 RFU/200 μl and 53617 RFU/200 μl and 54817 RFU/200 μl
- RFU/200 μl (replicates1-3), single values (M. tuberculosis H37Rv [1]; drug conc. 0.39): 12610 RFU/200 μl and 12620 RFU/200 μl and 10050 RFU/200 μl and 11010 RFU/200 μl and 12080 RFU/200 μl and 10560 RFU/200 μl and 10740 RFU/200 μl and 10520 RFU/200 μl and 12650 RFU/200 μl
- RFU/ml (×104) (M. tuberculosis H37Rv [1]; drug conc. 0.39): 5.7 RFU/ml (×104)
- RFU/200 μl (average) (M. tuberculosis H37Rv [1]; drug conc. 0.39, average of each replicate set): 11047 RFU/200 μl and 10607 RFU/200 μl and 12627 RFU/200 μl
- RFU/200 μl (replicates1-3), single values (M. tuberculosis H37Rv [1]; drug conc. 0.78): 7570 RFU/200 μl and 7470 RFU/200 μl and 7230 RFU/200 μl and 7160 RFU/200 μl and 7680 RFU/200 μl and 7340 RFU/200 μl and 7150 RFU/200 μl and 7460 RFU/200 μl and 7540 RFU/200 μl
- RFU/ml (×104) (M. tuberculosis H37Rv [1]; drug conc. 0.78): 3.7 RFU/ml (×104)
- RFU/200 μl (average) (M. tuberculosis H37Rv [1]; drug conc. 0.78, average of each replicate set): 7357 RFU/200 μl and 7317 RFU/200 μl and 7527 RFU/200 μl
- concentration with significant antitubercular effect (M. tuberculosis H37Rv [1]; fluorescence-based assay): 0.78 µg/mL and 0.39 µg/mL
- RLU/50ul (replicates1-3), single values (XDR M. tuberculosis): 190 RLU/50ul and 260 RLU/50ul (2×) and 250 RLU/50ul and 280 RLU/50ul and 160 RLU/50ul (2×) and 150 RLU/50ul and 170 RLU/50ul and 540 RLU/50ul (2×) and 630 RLU/50ul (2×) and 530 RLU/50ul and 620 RLU/50ul and 670 RLU/50ul (2×) and 580 RLU/50ul and 690 RLU/50ul and 830 RLU/50ul (2×) and 790 RLU/50ul and 800 RLU/50ul and 880 RLU/50ul and 870 RLU/50ul and 750 RLU/50ul (2×)
- antitubercular effect (XDR M. tuberculosis): did not show a significant antitubercular effect
- Efficacy in BALB/C mouse model of pulmonary tuberculosis, Average (M. tuberculosis H37Rv [2]; Fig 4A, group dose 30, 6 mice): 4583
- reduction of bacterial load in lungs compared to drug-free group (M. tuberculosis H37Rv [2]; mouse, in vivo): similar
- granulomatous lesions in lung sections (HE staining) (M. tuberculosis H37Rv [2]; mouse, in vivo, po): limited number of small granulomatous lesions
- beta set-significance analysis, pair-wise comparison of gut microbiome (intestinal microbiome; [3]): not significant
- difference in phylum or class level taxa compared to drug-free group (intestinal microbiome; [3]): did not significantly differ
- phylogenetic diversity compared to drug-free control group (intestinal microbiome; [3]): no significant change

Compound: CO[C@H]1/C=C/O[C@@]2(C)Oc3c(C)c(O)c4c(O)c(c(/C=N/N5CCN(C)CC5)c(O)c4c3C2=O)NC(=O)/C(C)=C\C=C\[C@H](C)[C@H](O)[C@@H](C)[C@@H](O)[C@@H](C)[C@H](OC(C)=O)[C@@H]1C [RIF, rifampicin, reference compound]
- beta set-significance analysis, pair-wise comparison of gut microbiome (intestinal microbiome; mouse, in vivo): significant
- difference in phylum or class level taxa compared to drug-free group (intestinal microbiome; mouse, in vivo): significant differences
- phylogenetic diversity compared to drug-free control group (intestinal microbiome; mouse, in vivo): significantly decreased
